Assay results reported in US4149007A, “C14 Phenyl-substituted derivatives of prostaglandin analogues” (Miles Laboratories, Inc., priority 1977, dated 1979).
“Also recorded” adds a separate entry of the source.

How the values were obtained:
anesthetized dog = test: Effects on femoral blood flow in the anesthetized dog; assay type: in vivo; conditions: intraarterial 0.001 to 10 mcg
Description: (H) effect on femoral blood flow in the anesthetized dog; and
The peripheral vasodilator or constrictor effects of test compounds were determined in mongrel dogs of either sex, weighing between 10 and 20 kg, anesthetized intravenously with 35 mg/kg of pentobarbital sodium. An external iliac artery was dissected immediately above the femoral arch for a length of approximately 5 cm, and a previously calibarated, non-cannulating electromagnetic-flowmeter sensor with a lumen between 2.5 and 3.5 mm was placed snugly around the vessel. Cannulas were placed in a branch of the artery arising distally to the location of the flowmeter sensor for intraarterial drug administrations, in the contralateral femoral artery for systemic blood pressure recording, and in the trachea for artificial respiration with room air. Femoral blood flow and systemic blood pressure were continuously recorded with an electromagnetic flowmeter and pressure transducer, respectively.
After an adequate control period, test compounds were injected intraarterially at one log-spaced doses ranging from 0.001 to 10 mcg, in a volume of 0.5 ml and at 5 to 10 minute intervals. […] The dose changing blood flow by 100 ml/min (ED100 ml/min) was calculated graphically and was used for scoring activity as follows: […]

hypertensive rat = test: Effects on blood pressure in the hypertensive rat; assay type: in vivo; parameters: key: 0: Not significant at any time interval; 1: Significant at one time interval; 2: Significant at two time intervals; conditions: 1 mg/kg intraperitoneal; 2, 4, 6 and 9 hours
Description: (I) effect on systolic blood pressure in the hypertensive rat
The acute anithypertensive activity of test compounds was determined in rats made hypertensive by the procedure of Grollman (Proc. Soc. Exper Biol. Med., 57: 102 [1944]). Female rats weighing between 60 and 100 g were anesthetized with ether, the right kidney approached through a flank retroperitoneal incision, decapsulated and tied with a figure-of-eight-ligature. The animals were left to recover and two weeks later were again anesthetized and the contralateral kidney removed. […]
Blood pressure was measured in the tail with an inflatable occluding cuff placed at the base of the extremity and a pulse detector located distally. The cuff was inflated to approximately 300 mmHg and was slowly deflated until pulsations appeared, indicating the level of systolic pressure; diastolic pressure was not recorded by this procedure. […] In all cases, three pressure readings were obtained in succession and mean values were calculated thereof.
Experiments were carried out in groups of five hypertensive rats in which systolic pressure was determined immediately before and 2, 4, 6 and 9 hours after intraperiotoneal administration of the test compound at a dose of 1 mg/kg. Drugs were diluted from stock solutions with phosphate buffer (Lee et al., Prostaglandins, 3: 29 [1973]), so as to inject this quantity in a volume of 1 ml/kg. […]

guinea pig ileum [1] = test: Antagonism of the effects of PGE1 on the guinea pig ileum in vitro; assay type: cell-based; conditions: listed as TR 4412
Description: (§1) The degree and specificity of antagonism of test compounds to the smooth muscle stimulant effects of prostaglandins were assessed in segments of terminal guinea pig ileum. Preparations were placed in tissue chambers filled with Ringer-Tyrode solution at 37° C., bubbled with a mixture of 95% O2 and 5% CO2, and arranged for isometric recording with force displacement transducers. The segments were stretched to an initial tension of 1 g, and responses to a test concentration of acetylcholine (0.1 mcg/ml) were obtained every 5 minutes until two similar responses were observed (usually after four administrations). […] Any direct contractile effect of the test compound was recorded and evaluated in terms of mean values in grams of tension developed at each concentration. Responses to the different agonists observed after incubation with the test compound were expressed as percent of control responses. All drugs were administered in a volume of 0.1 ml.
(§2) Antagonism to prostaglandins was scored independently for PGE1 and PGF2α according to the following criteria: […]

guinea pig ileum [2] = test: Antagonism of the effects of PGF2α on the guinea pig ileum in vitro; assay type: cell-based; conditions: listed as TR 4412
Description: as §1, §2

anesthetized cat = test: Effects on blood pressure and heart rate in the anesthetized cat; assay type: in vivo; conditions: i.v. 0.01 to 10.0 mcg/kg, scored on hypotension only
Description: (G) effect on blood pressure and heart rate in the anesthetized cat;
The acute effects of test compounds on blood pressure and heart rate were determined in cats of either sex anesthetized with a mixture of pentobarbital sodium (35 mg/kg, i.v.) and barbital sodium (100 mg/kg, i.v.). Cannulas were placed in the trachea to allow adequate spontaneous ventilation, in a femoral artery for blood pressure recording with a strain gage transducer, and in a saphenous vein for drug administration. Heart rate was recorded by means of a cardiotachometer driven by the R wave of the electrocardiogram. After a period of 10 minutes of stable recordings of blood pressure and heart rate, the test compound was administered intravenously at doses increasing from 0.01 to 10.0 mcg/kg, spaced one log and injected at 10 minute intervals. All doses were injected in a volume of 0.1 ml/kg. Modifications of blood pressure and heart rate induced by the test compound were expressed both in absolute units (mmHg and beats/minute) and as percent of values recorded immediately before administration of each dose. […]
Activity of compounds in this test was judged only on the basis of the degree of hypotension observed. Thus, the ED50 mmHg (dose decreasing blood pressure by 50 mmHg) was calculated graphically, and the compound scored according to the following scale: […]

rat uterus = test: Effects on the rat uterus in vitro; assay type: cell-based; conditions: dose producing response 50% that of carbachol
Description: (B) effect on the rat uterus in vitro;
The uterine stimulant effect of test compounds was determined in segments of uterus obtained from rats (140-160 g) pretreated subcutaneously with 1 mg/kg of diethylstilbesterol 18 hours before the experiment. The tissues were placed in 10 ml chambers filled with de-Jalon solution at 29° C., were aerated and bubbled with 95% O2 and 5% CO2, and were prepared for isometric recording with force displacement transducers. Preparations were stretched to an initial tension of 1 g and were left undisturbed for 30 minutes. Carbachol (1 mcg/ml) was then added to the bath and a response was recorded. After a ten minute interval the carbachol procedure was repeated. Responses to increasing concentrations of a test compound (0.001 to 10 mcg/ml with one log intervals) were then recorded every 10 minutes. Preparations were washed four times after each response. All doses of compounds were administered in a 0.1 ml volume. Because it has been observed that the magnitude of the second response to carbachol (approximately 10% greater than the first) is close to the maximal response of the tissue, such value was taken as a measure of the sensitivity of a particular segment. Responses to each concentration of the test compound were expressed in terms of percentage of the second response to carbachol and the ED50 (dose producing a response 50% that of carbachol) was calculated graphically.
Activity was scored according to the following scale: […]

guinea pig trachea = test: Effects on the guinea pig trachea in vitro; assay type: cell-based; conditions: 0.01-10.0 mcg/ml, relative to PGE1 0.1 mcg/ml
Description: (C) effect on the guinea pig trachea in vitro;
A male guinea pig weighing 200-500 g was killed by a blow on the head. A 20 mm length of the trachea was dissected from the animal, transferred to a petri dish containing Krebs' solution (aerated with 95% O2 and 5% CO2 at 37° C.), and cut longitudinally opposite the tracheal muscle. The tissue was then cut transversely three quarters of the distance across, a second cut in the opposite direction (again three quarters of the distance across the tissue) was made and the procedure was continued for the whole tissue. The ends of the trachea were pulled to form a zig-zig shaped strip. The tracheal strip used in the experiment was approximately 30 mm when extended under 0.25-0.5 g load in the tissue bath. Cotton thread was tied to one end of the tissue, and linen thread to the other. It was attached via the linen thread to a glass hook in a 5 ml isolated tissue bath containing Krebs' solution (37° C., aerated with a mixture of 95% O2 and 5% CO2). […]
A test compound was then added to the same two strips at bath concentrations of 0.01, 0.1, 1.0, and 10.0 mcg/ml and the effects of the compound were recorded. […] The mean of the effects of the test compound on the two strips was then calculated for each concentration, and, based on the resulting values, an activity value was assigned as follows: […]

CCCCC[C@H](O)/C(=C/[C@H]1[C@H](O)CC(=O)[C@@H]1CCCCCCC(=O)OC)c1ccccc1 [Example 1, Methyl 14-Phenyl-11α,15S-dihydroxy-9-oxoprost-13E-en-1-oate]
Femoral Blood Flow: activity value (ED100 ml/min) (anesthetized dog): 0 (>10.0) | Blood Pressure Hypertensive Rat: activity value (hypertensive rat): 0 | antagonism to the smooth muscle stimulant effects of PGE1 (in words) (guinea pig ileum [1]): exhibited antagonism to the smooth muscle stimulant effects of PGE1 and PGF2α; also recorded: demonstrated a specificity of antagonism to the smooth muscle stimulant effects of PGE1 and PGF2α | antagonism to the smooth muscle stimulant effects of PGF2α (in words) (guinea pig ileum [2]): exhibited antagonism to the smooth muscle stimulant effects of PGE1 and PGF2α; also recorded: demonstrated a specificity of antagonism to the smooth muscle stimulant effects of PGE1 and PGF2α | Feline Blood Pressure, Heart Rate: activity value (ED50 mmHg) (anesthetized cat): 0 (>10.0) | Rat Uterus: activity value (ED50) (rat uterus): 0 (>10)

CCCCC[C@@H](O)/C(=C/[C@H]1[C@H](O)CC(=O)[C@@H]1C/C=C\CCCC(=O)OCC)c1ccccc1 [Example 7A, Ethyl 14-Phenyl-11α,15R-dihydroxy-9-oxoprosta-5Z,13E-dien-1-oate]
Rat Uterus: activity value (ED50) (rat uterus): 0 (>10) | Guinea Pig Trachea: activity value (guinea pig trachea): 1
